The text below walks through data of patent US10617656B2, “Methods of increasing the cytotoxicity of chemotherapeutic agents with multisubstrate inhibitors of histone, protein-Lys, polyamine acetylation, and polyamine metabolism” (Vanderbilt University, priority 2010, dated 2020).

The subject of data set [1] is H358 lung cancer cells. Kind of data set: [3H]-thymidine incorporation (DNA synthesis) assay in H358 cells. In kind it is cell-based. How it is done:
(A) Structures of 1a, and the acetylated side chain of a lysine residue within the polypeptide chain of a protein targeted by the acetylating enzyme (R1 and R2 are the main chain elements on both sides of the lysyl residue). (B) [^3H]-thymidine incorporation into DNA of H358 cells pulsed for 6 hrs at three different time points after the addition of increasing concentrations of 1a, i.e., at 6-12 hrs (12 hr curve), at 18-24 hours (24 hr curve), or at 42-48 hrs (48 hr curve). Incorporation is represented as a percentage relative to control (untreated) cells. (C) Cell cycle analysis of propidium iodide-stained cells harvested at various times after addition of 50 μM 1a. % of cells in G1, S, and G2 represents the average of two independent profiles. (D) Western analysis of histone H3 lysine 9 acetylation, histone H3 lysine 56 acetylation, histone H3 lysine 9 methylation, and total histone H3, before “c” or at the indicated times after addition of 50 μM 1a. Each lane represents 60 μg cellular protein.
(§1) Control cells were left untreated. […] Control cells were left untreated.
Cells were either labeled immediately before treatment (starting DNA synthesis rate), or subjected to the indicated treatments and then pulsed on successive days until day 4. DNA synthesis is represented as the percent of starting DNA synthesis rate. Viability was determined for each treatment condition 24 hours post-start of treatment by the trypan blue exclusion assay, with percentages of viable cells indicated to the right of the graph.
H358 cells (2,000/well) in 96-well plates were treated with 1, 10 or 50 μM of spd-1a, spd-2a, spd-3a, spm3, or spm2 for 12 hours. Triplicate wells of cells were pulsed 6 hours with 0.5 μCi [^3H]-thymidine (NEN, Boston Mass.) post-start of drug treatment, and harvested onto filter paper using a Brandel Harvester and subjected to scintillation counting. Untreated cells were pulsed from 0-6 hrs to establish the initial rate of incorporation.
Cells were plated in 96-well plates (2000 cells per well to insure conditions for exponential growth for untreated cells over the time course of the experiment) and exposed to the following treatments: 1a (50 μM); camptothecin (Sigma, St Louis, Mo. 5 nM, 18 hours); cisplatin (Platinol, obtained through local pharmacies, 2 μM, 1 hour 15 minutes), 5-fluorouracil (5FU, Adrucil™, obtained through local pharmacies, 2 μM, 1 hour 15 minutes), Taxotere (provided by the late Dr. Pierre Potier, 5 nM, 18 hours). UVC treatment (40 J/m^2) using a Stratalinker™, Stratagene, La Jolla, Calif.) was carried using medium lacking phenol red. At 0-6 hr, 18-24 hr (day 1), 42-48 hr […], 66-72 hr (day 3), and 90-96 hr (day 4) post-start of treatment, triplicate wells were incubated with 0.5 μCi [^3H]-thymidine (NEN, Boston Mass.), harvested onto filter paper, and subjected to scintillation counting. Trypan blue exclusion assays for cell membrane integrity were carried out as known in the art.
The present inventors used 96-well viability assays as described in Saadatmandi et al (Cancer Gene Therapy (2002) 9:[…]) to examine the effect of 1a on DNA synthesis in H358 cells, as well as the combined effects of 1a and chemotherapeutic agents. H358 cells were plated in 96-well plates at 3000 cells per well. […]

The test system of data set [2] is H358 lung cancer cells. In kind it is cell-based. Conditions: 3 days. How it is done:
as §1
Cells were given fresh inhibitor on the first, second, and third days of treatment and viability was measured on the 4th day (i.e. 3 days post start of treatment). […]
(A) Structure of Spd-3a. (B) Western analysis of histone H3K9-acetylation and total histone H3, measured in control, untreated H358 lung cancer cells “C” or in H358 cells incubated 12 hours in the presence of 50 μM Spd-2a or Spd-3a. Each lane represents 60 μg cellular protein. (C) [3H]-thymidine incorporation (counts per minute) into DNA of H358 cells during a 6 hour pulse beginning at 42 hours post-start of treatment. Treatments were as follows (bars 1-6 left to right): (1) control: no treatment; (2) CPT alone: 5 nM 18 hours; (3) 3a alone: 50 μM; (4-6) 3a+CPT: CPT (5 nm, 18 hours)+3a at indicated dose. After 18 hours, CPT was removed and medium was replaced with fresh medium containing Spd-3a at the indicated dose. Each bar represents the average of triplicates. (D) 3-day 96-well viability assay of H358 cells grown in the presence of increasing amounts of Spd-2a or Spd-3a, with or without CPT (5 nM 18 hours). […] Each data point represents the average of three wells.
Date of exp: Jul. […] Date of exp: Sep.
Cells were plated in 96-well plates at 2000 cells per well and treated with the indicated doses of spd-3a. Cell viability was measured by the MTS assay 3 days later.
DLD-1 cells or H358 cells were plated in 96-well plates at 2000 cells per well and treated with the indicated doses of (A) spm-3 or (B) spm-2. (C) Cell viability was measured by the MTS assay 3 days later. Similar experiment using GT41 fibroblasts with spm2 or spm 3. Each assay point represents an average of duplicates. […]

As to `CC(=O)NCCSCC(=O)NCCCNCCCCNCCCN` [spm-3], the “inhibition of DNA synthesis” value in the data set on H358 lung cancer cells [1] (1, 10 or 50 μM, 12 hours) is on record as “inhibit DNA synthesis”. Further, the “suppression of cancer cell growth and viability” value with H358 lung cancer cells [2] (spm single agent) is on record as “effective as single agents”.

With `CC(C)(COP(=O)(O)OP(=O)(O)OC[C@H]1O[C@@H](n2cnc3c(N)ncnc32)[C@H](O)[C@@H]1OP(=O)(O)O)[C@@H](O)C(=O)NCCC(=O)NCCSCC(=O)NCCCNCCCCN` [1a, spermidine[N1]-CoA], in the data set with H358 lung cancer cells [1] (50 μM 1a + 5FU 2 μM), the “sensitization to 5-FU” value is “sensitized”. The “suppression of 3 day cell viability” value in the data set on H358 lung cancer cells [2] (human) was 60-70%.
